Laboratory results taken from BindingDB's records for doi:10.1021/jm0101085 (University of North Carolina, 2001).

Columns and labels:
Tubulin alpha-1A chain [1] = target: T1, Tubulin alpha-1A chain (Sus scrofa, UniProt P02550); experiment: Percent inhibition of colchicine binding(ICB) at 5 uM [3H]colchicine concentration
Tubulin alpha-1A chain [2] = target: T1, Tubulin alpha-1A chain; experiment: Inhibition of colchicine binding(ICB). [3H]colchicine concentration was 5 uM
Tubulin alpha-1A chain [3] = target: T1, Tubulin alpha-1A chain; experiment: Inhibition of colchicine binding(ICB). Tubulin concentration was 1 uM

T1 sequence (P02550 whole entry, looked up): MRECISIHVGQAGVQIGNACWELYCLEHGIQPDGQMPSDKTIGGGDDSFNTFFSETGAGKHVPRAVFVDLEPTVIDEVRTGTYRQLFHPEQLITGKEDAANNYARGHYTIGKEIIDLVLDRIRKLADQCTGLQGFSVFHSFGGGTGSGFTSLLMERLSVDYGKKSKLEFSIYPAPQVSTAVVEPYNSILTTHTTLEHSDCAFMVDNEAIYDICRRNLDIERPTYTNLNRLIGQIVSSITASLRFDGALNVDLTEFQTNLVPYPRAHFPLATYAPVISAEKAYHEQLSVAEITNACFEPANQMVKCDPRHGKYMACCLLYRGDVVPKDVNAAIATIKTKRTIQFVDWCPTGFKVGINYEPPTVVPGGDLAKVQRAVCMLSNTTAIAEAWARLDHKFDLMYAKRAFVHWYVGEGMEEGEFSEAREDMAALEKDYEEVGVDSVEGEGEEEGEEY

| Inhibition (Tubulin alpha-1A chain [1]) | Inhibition (Tubulin alpha-1A chain [2]) | Inhibition (Tubulin alpha-1A chain [3]) | SMILES |
| --- | --- | --- | --- |
| 39% |  |  | Oc1cc(-c2ccccc2F)nc2cc3c(cc12)OCO3 [2-(2-fluorophenyl)-6,7-methylenedioxyquinolin-4-one] |
|  | 93% | 76% | Oc1cc(-c2ccccc2F)nc2ccc(N3CCCC3)cc12 [2-(2-fluorophenyl)-6-(pyrrolidin-1-yl)quinolin-4(1H)-one] |
